Assay results published in US4898943A, “Tricyclic triazolopyrimidine derivatives” (Daiichi Seiyaku Co., Ltd., priority 1987, dated 1990).

How the values were obtained:
PCA reaction = test: PCA test (48-hour passive cutaneous anaphylaxis), oral administration; assay type: in vivo; settings: Rattus norvegicus, 10 mg/kg orally, 30 minutes before antigen challenge, male Sprague-Dawley rats
Description: Each of Sprague-Dawley female rats weighing 170 to 250 g (CRJ-CD(SD), Charles River Japan Inc.) was intramuscularly administered with 5 mg/kg-body weight of egg albumin dissolved in saline, and then 1 ml of a suspension of Bordetella pertussis vaccine (2×10^10 organism) in saline was administered intraperitoneally to the rat. On day 10, 3,000 larvae animal of Nippostrongylus brasiliensis were subcutaneously administered to the rats. On day 24, blood was drawn from the rats to obtain an antiserum.
The antiserum was diluted with saline so as to provide a blue spot having a diameter of about 10 mm in the following control group.
Male sprague-Dawley rats weighing about 180 g (5 rats per group) were sensitized by injecting 0.05 ml of the diluted antiserum into the shaved dorsal skin. Fourty-eight hours later, 1 ml of saline containing 0.5% Evans blue and 5 mg of egg albumin was administered to each of the rats via a tail vein. After 30 minutes, the rats were sacrificed by decapitation. The dorsal skin was removed, and the amount of the dye in the blue spot area was measured in accordance with the method of Katayama et al., Microbiol. Immunol., Vol. 22, 89-101 (1978).
Ten milligrams of the test compound was suspended in 5 ml of a 0.5% CMC aqueous solution, and the suspension was orally administered to each of the rats in an amount of 10 mg/kg 30 minutes before the antigen challenge. On the other hand, a control group received only a 0.5% CMC solution.
The inhibitory activity on the PCA reaction in the treated group was calculated by the following equation: [formula] wherein V represents a mean value of the dye amount in the blue spot area in the control group; and W represents a mean value of the dye amount in the blue spot area in the treated group.

Acute toxicity test = settings: mouse, in vivo, po; p.o. in mice

Row | Compound | inhibition at 10 mg/kg (PCA reaction) | LD50 (Acute toxicity test)
1 | O=c1c2[nH]nnc2nc2sc(CC3CCCCC3)nn12 [Example 4] | 77% | –
2 | O=c1c2[nH]nnc2nc2sc(CCC3CCCC3)nn12 [Example 2] | 62% | 2000 to 4000 mg/kg
3 | O=c1c2[nH]nnc2nc2sc(CCCC3CCCCC3)nn12 [Example 5] | – | > 4000 mg/kg
4 | O=c1c2[nH]nnc2nc2sc(CCC3CCCCCC3)nn12 [Example 9] | 88% | > 4000 mg/kg
5 | O=c1c2[nH]nnc2nc2sc(CCCC3CCCC3)nn12 [Example 3] | 91% | > 4000 mg/kg
6 | O=c1c2[nH]nnc2nc2sc(CCC3CCCCC3)nn12 [Example 1, 6-(2-Cyclohexylethyl)-[1,3,4]thiadiazolo-[3,2-a][1,2,3]triazolo[4,5-d]pyrimidin-9-(1H)-one] | 81% | > 4000 mg/kg
